In patent US20260108687A1 (Belhaven BioPharma Inc., priority 2024, published 2026):

Test: Phase 1 clinical study / Study 101: plasma epinephrine pharmacokinetics
Format: in vivo
Details: human, 0.3 mg IM, read-out: mean baseline-corrected Cmax
Procedure: Twelve human subjects participated in the open-label, single sequence crossover study. […] The subjects returned for a safety follow up visit 3 to 5 days after the final treatment.
The dry powder formulation was administered via intranasal instillation once using a nasal device (APTAR). The IM solution and materials were supplied by the study site and prepared according to the local procedures. The study drug was administered at approximately the same time on each treatment day. There was a washout period of 20 days between the nasal doses administered as treatment A and treatment D. The subjects were admitted to the clinical site the day before each treatment administration and remained on site until at least 8 hours post-dose, or when applicable, until 24 hours post-dose of the specific treatment period. The study drug was administered after at least a 10 hour fast. A standardized meal was provided approximately 4 hours after dosing. […]
Noncompartmental analysis was performed on individual human subject plasma concentration-time data using nominal doses and actual blood sampling times. […] Baseline correction was accomplished using the average of the measured concentrations at nominal times of −60, −30, and 0 minutes before dosing. […]

## CNC[C@H](O)c1ccc(O)c(O)c1 [Epinephrine IM, epinephrine]
  Cmax: 184 µg/mL
